From ChEMBL document CHEMBL4814037, “Synthesis of pyrazoline fatty chain derivatives and its effects on melanoma cells” (2021)
The source made the active and inactive calls. No cut-off for these calls is given here.

What was measured:
B16-F10 [1] = experiment: Cytotoxicity against mouse B16-F10 cells assessed as cell viability at 3000 uM incubated for 48 hrs relative to control; assay type: functional; settings: read-out: Activity
B16-F10 [2] = experiment: Cytotoxicity against mouse B16-F10 cells assessed as cell viability at 3000 uM incubated for 72 hrs relative to control; assay type: functional; settings: for viability at 3000 µM: read-out: Activity
B16-F10 [3] = experiment: Cytotoxicity against mouse B16-F10 cells assessed as cell viability at 3000 uM incubated for 24 hrs relative to control; assay type: functional; settings: for viability at 3000 µM: read-out: Activity
B16-F10 [4] = experiment: Cytotoxicity against mouse B16-F10 cells assessed as cell viability at 300 uM incubated for 48 hrs relative to control; assay type: functional; settings: read-out: Activity
B16-F10 [5] = experiment: Cytotoxicity against mouse B16-F10 cells assessed as cell viability at 300 uM incubated for 24 hrs relative to control; assay type: functional; settings: read-out: Activity
B16-F10 [6] = experiment: Cytotoxicity against mouse B16-F10 cells assessed as cell viability at 300 uM measured immediately relative to control; assay type: functional; settings: read-out: Activity
B16-F10 [7] = experiment: Cytotoxicity against mouse B16-F10 cells assessed as cell viability at 30 uM incubated for 48 hrs relative to control; assay type: functional; settings: read-out: Activity
B16-F10 [8] = experiment: Cytotoxicity against mouse B16-F10 cells assessed as cell viability at 30 uM incubated for 72 hrs relative to control; assay type: functional; settings: read-out: Activity
B16-F10 [9] = experiment: Cytotoxicity against mouse B16-F10 cells assessed as decrease in cell viability at 3000 uM incubated for 72 hrs; assay type: functional, cell-based
B16-F10 [10] = experiment: Cytotoxicity against mouse B16-F10 cells assessed as cell viability at 300 uM incubated for 72 hrs relative to control; assay type: functional; settings: for viability at 300 µM: read-out: Activity
B16-F10 [11] = experiment: Cytotoxicity against mouse B16-F10 cells assessed as cell viability at 3 uM incubated for 48 hrs relative to control; assay type: functional; settings: read-out: Activity
B16-F10 [12] = experiment: Cytotoxicity against mouse B16-F10 cells assessed as cell viability at 3 to 3000 uM measured after 48 to 72 hrs; assay type: functional, cell-based; settings: dose 3-3000 µM, time 48-72 hrs

Compound: CC1=NN(C(N)=S)C(O)(C(F)(F)F)C1 (stereo not drawn)
- viability at 3000 µM (B16-F10 [1]): 9%
- viability at 3000 µM (B16-F10 [2]): 4%
- Activity (B16-F10 [3]): Active

Compound: CCCCCCC1=NN(C(N)=S)C(O)(C(F)(F)F)C1 (stereo not drawn)
- viability at 3000 µM (B16-F10 [1]): 8%
- viability at 3000 µM (B16-F10 [2]): 8%
- viability at 3000 µM (B16-F10 [3]): 16%

Compound: CCCCCCCCCCCC1=NN(C(N)=O)C(O)(C(F)(F)F)C1 (stereo not drawn)
- viability at 300 µM (B16-F10 [4]): 16%
- viability at 300 µM (B16-F10 [5]): 17%
- viability at 300 µM (B16-F10 [6]): 78%
- viability at 30 µM (B16-F10 [7]): 76%
- viability at 30 µM (B16-F10 [8]): 51%
- Activity (B16-F10 [9]): Active

Compound: CCCCCCCCCCCC1=NN(C(N)=S)C(O)(C(F)(F)F)C1 (stereo not drawn)
- viability at 300 µM (B16-F10 [4]): 18%
- viability at 300 µM (B16-F10 [10]): 10%
- viability at 300 µM (B16-F10 [5]): 17%
- viability at 30 µM (B16-F10 [7]): 67%
- viability at 3 µM (B16-F10 [11]): 89%

Compound: CC1=NN(C(N)=O)C(O)(C(F)(F)F)C1 (stereo not drawn)
- Activity (B16-F10 [9]): Active

Compound: CCCCCCC1=NN(C(N)=O)C(O)(C(F)(F)F)C1 (stereo not drawn)
- viability at 300 µM (B16-F10 [4]): 53%
- viability at 3000 µM (B16-F10 [1]): 8%
- Activity (B16-F10 [10]): Active
- Activity (B16-F10 [2]): Active
- viability at 3000 µM (B16-F10 [3]): 76%

Compound: NC(=O)N1N=CCC1(O)C(F)(F)F (stereo not drawn)
- viability at 300 µM (B16-F10 [4]): 43%
- viability at 3000 µM (B16-F10 [1]): 17%
- viability at 300 µM (B16-F10 [10]): 17%
- viability at 3000 µM (B16-F10 [2]): 7%

Compound: NC(=S)N1N=CCC1(O)C(F)(F)F (stereo not drawn)
- inhibition (B16-F10 [12]): Active
